Reference: patent US11478471B2, “Methods and compositions for treating diabetes, metabolic syndrome and other conditions” (priority 2005, dated 2022)
≈ marks a conversion by molar mass, not a printed value. Like-named read-outs stand apart in the source and are kept apart here.

How the values were obtained:
[1] = Toxicokinetics in the 28 day dog study of DIO-902 (with racemic ketoconazole group a); settings: beagle, plasma, po, dogs; for concentration at 4 h / concentration at 8 h / concentration at 12 h / concentration at 0 h / concentration at 1 h / concentration at 2 h: Drug concentration in plasma; for Tmax: Tmax Range; for AUC(0-t): AUC(0-12);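 on all read-outs here: beagle dogs dosed orally once daily within a 28-day GLP study, 3 animals per sex per group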
Issatchenkia orientalis = assay: Antifungal MIC; assay type: cell-based; settings: Pichia kudriavzevii, read-out: MIC
cholesterol levels = assay: Cholesterol levels in rats after oral dosing; assay type: in vivo, Sprague Dawley rats; settings: single oral 200 mg/kg
Protocol: The rats were maintained as described above; the drugs were suspended in olive oil, and each rat was dosed once via gastric tube to achieve a dose of 200 mg/kg. All of the rats were dosed at a specific time so that all terminations occurred between 6 and 7 pm. […] Following sacrifice, plasma was prepared, and the concentration of corticosterone in the plasma was determined by ELISA. In the same plasma samples, total cholesterol levels were also determined.

Candida albicans = assay: Antifungal MIC; assay type: cell-based
[2] = female, 20 mg/kg, 20 mg/kg oral, day 28, F
[3] = male, 2 mg/kg, 2 mg/kg oral, day 28, M
[4] = male, 2 mg/kg, 2 mg/kg oral, day 1, M
[5] = male, 6.5 mg/kg, 6.5 mg/kg oral, day 28, M
[6] = male, 6.5 mg/kg, 6.5 mg/kg oral, day 1, M
[7] = male, 20 mg/kg, 20 mg/kg oral, day 1, M
[8] = male, 20 mg/kg, 20 mg/kg oral, day 28, M

Question: Which concentration at 4 h [1, 2] does the source give for `CC(=O)N1CCN(c2ccc(OC[C@@H]3CO[C@@](Cn4ccnc4)(c4ccc(Cl)cc4Cl)O3)cc2)CC1` [DIO-902, 2S,4R cis-1-acetyl-4-[4-[[2-(2,4-dichlorophenyl)-2-(1H-imidazol-1-ylmethyl)-1,3-dioxolan-4-yl]methoxyl]phenyl]piperazine] here?
Answer: 6.42 µg/mL

Question: What about the concentration at 8 h [1, 2] of the same molecule?
Answer: 9.83 µg/mL

Question: And the concentration at 12 h [1, 2]?
Answer: 6.53 µg/mL

Question: What about the Tmax ([1]; female, 20 mg/kg, 20 mg/kg oral, day 1, F) of the same molecule?
Answer: 4 to 8 h

Question: What about the Tmax [1, 2] of the same molecule?
Answer: 8 to 12 h

Question: What about the AUC(0-t) ([1]; male, 2 mg/kg, 2 mg/kg oral, day 1, M, n = 1) of the same molecule?
Answer: 2.39 µg·h/mL

Question: What about the AUC(0-t) [1, 3] of the same molecule?
Answer: 3.26 µg·h/mL

Question: What about the Cmax [1, 4] of the same molecule?
Answer: 0.51 µg/mL

Question: And the Cmax [1, 3]?
Answer: 0.68 µg/mL

Question: And the concentration at 0 h [1, 4]?
Answer: < 0.25 µg/mL

Question: And the concentration at 1 h [1, 4]?
Answer: 0.4 µg/mL

Question: What about the concentration at 2 h [1, 4] of the same molecule?
Answer: 0.45 µg/mL

Question: What about the concentration at 4 h [1, 4] of the same molecule?
Answer: < 0.25 µg/mL

Question: What about the concentration at 8 h [1, 4] of the same molecule?
Answer: < 0.25 µg/mL

Question: And the concentration at 12 h [1, 4]?
Answer: < 0.25 µg/mL

Question: And the concentration at 0 h [1, 3]?
Answer: < 0.25 µg/mL

Question: And the concentration at 1 h [1, 3]?
Answer: 0.66 µg/mL

Question: What about the concentration at 2 h [1, 3] of the same molecule?
Answer: 0.54 µg/mL

Question: What about the concentration at 4 h [1, 3] of the same molecule?
Answer: 0.38 µg/mL

Question: What about the concentration at 8 h [1, 3] of the same molecule?
Answer: < 0.25 µg/mL

Question: What about the concentration at 12 h [1, 3] of the same molecule?
Answer: < 0.25 µg/mL

Question: And the Tmax [1, 4]?
Answer: 1 to 2 h

Question: And the Tmax [1, 3]?
Answer: 1 to 4 h

Question: And the AUC(0-t) ([1]; male, 6.5 mg/kg, 6.5 mg/kg oral, day 1, M, n = 2)?
Answer: 12.2 µg·h/mL

Question: And the AUC(0-t) [1, 5]?
Answer: 14.7 µg·h/mL

Question: What about the Cmax [1, 6] of the same molecule?
Answer: 2 µg/mL

Question: What about the Cmax [1, 5] of the same molecule?
Answer: 2.01 µg/mL

Question: What about the concentration at 0 h [1, 6] of the same molecule?
Answer: < 0.25 µg/mL

Question: And the concentration at 1 h [1, 6]?
Answer: 1.19 µg/mL

Question: What about the concentration at 2 h [1, 6] of the same molecule?
Answer: 1.62 µg/mL

Question: And the concentration at 4 h [1, 6]?
Answer: 1.25 µg/mL

Question: And the concentration at 8 h [1, 6]?
Answer: 0.41 µg/mL

Question: And the concentration at 12 h [1, 6]?
Answer: 0.4 µg/mL

Question: What about the concentration at 0 h [1, 5] of the same molecule?
Answer: < 0.25 µg/mL

Question: What about the concentration at 1 h [1, 5] of the same molecule?
Answer: 1.17 µg/mL

Question: And the concentration at 2 h [1, 5]?
Answer: 1.39 µg/mL

Question: What about the concentration at 4 h [1, 5] of the same molecule?
Answer: 1.54 µg/mL

Question: And the concentration at 8 h [1, 5]?
Answer: 1.33 µg/mL

Question: And the concentration at 12 h [1, 5]?
Answer: 0.88 µg/mL

Question: What about the Tmax [1, 6] of the same molecule?
Answer: 1 to 4 h

Question: And the Tmax [1, 5]?
Answer: 1 to 8 h

Question: And the AUC(0-t) [1, 7]?
Answer: 60.6 µg·h/mL

Question: What about the AUC(0-t) [1, 8] of the same molecule?
Answer: 80 µg·h/mL

Question: And the Cmax [1, 7]?
Answer: 9.38 µg/mL

Question: And the Cmax [1, 8]?
Answer: 9.94 µg/mL

Question: And the concentration at 0 h [1, 7]?
Answer: < 0.25 µg/mL

Question: And the concentration at 1 h [1, 7]?
Answer: 7.05 µg/mL

Question: What about the concentration at 2 h [1, 7] of the same molecule?
Answer: 8.3 µg/mL

Question: What about the concentration at 4 h [1, 7] of the same molecule?
Answer: 6.15 µg/mL

Question: What about the concentration at 8 h [1, 7] of the same molecule?
Answer: 2.92 µg/mL

Question: What about the concentration at 12 h [1, 7] of the same molecule?
Answer: 6.74 µg/mL

Question: And the concentration at 0 h [1, 8]?
Answer: 1.19 µg/mL

Question: What about the concentration at 1 h [1, 8] of the same molecule?
Answer: 9.13 µg/mL

Question: What about the concentration at 2 h [1, 8] of the same molecule?
Answer: 9.78 µg/mL

Question: And the concentration at 4 h [1, 8]?
Answer: 8.17 µg/mL

Question: What about the concentration at 8 h [1, 8] of the same molecule?
Answer: 5.86 µg/mL

Question: What about the concentration at 12 h [1, 8] of the same molecule?
Answer: 4.25 µg/mL

Question: And the Tmax [1, 7]?
Answer: 1 to 4 h

Question: And the Tmax [1, 8]?
Answer: 2 to 4 h

Question: What about the MIC (Issatchenkia orientalis; DSM11956, DSM strain 11956, 48 h) of the same molecule?
Answer: 0.25 mg/L (≈ 0.47 µM)

Question: And the MIC (Issatchenkia orientalis; DSM11958, DSM strain 11958, 48 h)?
Answer: 1 mg/L (≈ 1.88 µM)

Question: What about the “Cholesterol Levels (mean ± SEM)” value (cholesterol levels; 4 h) of the same molecule?
Answer: 69.6 ± 1.9 mg/dL

Question: What about the “Cholesterol Levels (mean ± SEM)” value (cholesterol levels; 8 h) of the same molecule?
Answer: 73.5 ± 3.1 mg/dL

Question: What about the “Cholesterol Levels (mean ± SEM)” value (cholesterol levels; 12 h) of the same molecule?
Answer: 77.3 ± 3.9 mg/dL

Question: What about the “Cholesterol Levels (mean ± SEM)” value (cholesterol levels; 16 h) of the same molecule?
Answer: 61.9 ± 3.1 mg/dL

Question: What about the “Cholesterol Levels (mean ± SEM)” value (cholesterol levels; 20 h) of the same molecule?
Answer: 58 ± 1.2 mg/dL

Question: And the “Cholesterol Levels (mean ± SEM)” value (cholesterol levels; 24 h)?
Answer: 61.9 ± 3.1 mg/dL

Question: What about the MIC (Candida albicans; DSM11225, DSM strain 11225, 48 h, read-out: MIC) of the same molecule?
Answer: < 0.015 mg/L

Question: What about the MIC (Candida albicans; DSM11943, DSM strain 11943, 48 h, read-out: MIC) of the same molecule?
Answer: < 0.015 mg/L

Question: What about the MIC (Candida albicans; DSM11944, DSM strain 11944, 48 h, read-out: MIC) of the same molecule?
Answer: < 0.015 mg/L

Question: And the MIC (Candida albicans; DSM11945, DSM strain 11945, 48 h, read-out: MIC)?
Answer: 0.03 mg/L (≈ 0.0565 µM)

Question: And the MIC (Candida albicans; DSM11948, DSM strain 11948, 48 h, read-out: MIC)?
Answer: < 0.015 mg/L

Question: What about the MIC (Candida albicans; DSM11949, 48 h) of the same molecule?
Answer: 0.125 mg/L (≈ 0.235 µM)

Question: And the MIC (Candida albicans; strain 98-St-00799, 48 h, read-out: MIC)?
Answer: < 0.015 mg/L
